Broadly, the TGI is the concentration giving total growth inhibition. The low end stands for greater sensitivity of the cells, the high end for lower sensitivity of the cells. By GI50 is commonly meant the concentration that inhibits growth by half.

Where “and” joins values, the source holds several entries; their conditions need not be identical. Identical values can stand only once.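 1) Cells in 96-well plates. 2) Compound, 48 h, 5 concentrations. 3) Linear interpolation between surrounding doses. 4) Unreached endpoint = highest concentration. The concentration for 50% growth inhibition is given as GI50. TGI is the concentration that stops growth completely.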 Bounds are passed on as bounds.

What all share (test): DTP human tumour cell line panel, 48 h
In assay [1] the test system is A498 renal.
Assay [2] relates to COLO 205 colon.
The subject of assay [3] is HCC-2998 colon.
Assay [4] concerns HCT-116 colon.
The subject of assay [5] is K-562 leukemia.
For assay [6], the system named is OVCAR-8 ovarian.
In assay [7] the test system is TK-10 renal.
Assay [8] has as its system UACC-257 melanoma.
Assay [9] concerns DU-145 prostate.
Assay [10] has as its system BT-549 breast.

Consider `COc1ccccc1NC(=O)C1=C(C)NC(C)=C(C(=O)Nc2ccccc2OC)C1c1ccc(C)cc1`, for which the TGI in assay [1] was 82.7 µM; in assay [2], 44 µM; in assay [3] it was more than 100 µM; in assay [4], more than 100 µM; in [5], more than 100 µM; in [6], more than 100 µM. Besides, the TGI in assay [7] and in [8] was more than 100 µM throughout.
Turning to `COC(=O)C1(F)C(=O)NC(=O)NC1O` (centres undefined), the TGI in [1], in assay [2], in [9], in assay [3], in assay [4] and in assay [5] was more than 100 µM throughout. The TGI in [6], in assay [7] and in assay [8] was more than 100 µM in each case.
With `CCN(CCCl)CCCNc1c2ccccc2nc2ccc(OC)cc12`, the TGI in assay [1] was found to be 356 µM; in assay [2], 1.12 µM; in assay [4] it was 1.16 µM; in assay [6], 1.63 µM. Further, the GI50 in [3] was 436 µM; in assay [5] it was 116 µM; in assay [7] it was 872 µM; in [8], 457 µM.
For `CCSC1=C(C)N(C=NC(C)(C)C)CC1`, the TGI in assay [1], in assay [2], in assay [3], in assay [4], in [5] and in [6] was more than 100 µM throughout. The TGI in assay [7] and in [8] was more than 100 µM throughout.
For `CC(=O)OCC1OC(OC2CC3C(C)(C)C(O)CC[C@]3(C)C3CCC45CC4(CC[C@H]5C(C)CC(O)C4OC4(C)C)[C@]23C)C(O)C(O)C1O` (some centres undefined), the TGI in assay [1] was 51.8 µM; in assay [2], 13.8 µM and 11.9 µM; in [3], 13.8 µM and 21.3 µM; in assay [4], 16.3 µM and 21.8 µM; in assay [5], 4.12 µM and 16.2 µM; in assay [6] it was 14.4 µM and 23.8 µM. For the same compound, the TGI in assay [7] was 15.7 µM and 29.5 µM; in [8] it was 16.1 µM and 22.6 µM. For the same compound, the GI50 in assay [2] was 3.4 µM; in [3], 8.26 µM; in assay [4] it was 3.57 µM; in assay [6], 8.97 µM; in [7] it was 15.2 µM.
For the compound `O=C(Cc1cccc(OC(F)(F)F)c1)Nc1ccc(CCCCc2nnc(NC(=O)Cc3ccccn3)s2)nn1`, the GI50 was 27.9 µM in assay [10]; 23.8 µM in assay [2]; 25.8 µM in assay [9]; 52.4 µM in assay [3]; 16.2 µM in assay [4]; 16.9 µM in assay [5]. In addition, the values for the GI50 in assay [6], in [7] and in [8] were 15.8 µM, 11.7 µM and 29.3 µM, respectively. In addition, the TGI in [10], in assay [2], in assay [9], in [3], in [4] and in [5] was more than 100 µM in each case. In addition, the TGI was 54.8 µM in assay [6], 24.5 µM in assay [7] and more than 100 µM in assay [8].
On to `CC1=CCC23C(C1)OC(Br)(C=CC2(C)O)C3(C)C` (centres undefined), for which the TGI in assay [1], in [2], in assay [3], in assay [4], in assay [5] and in assay [6] was more than 100 µM each time. Besides, the TGI in assay [7] and in [8] was more than 100 µM throughout.
Consider `c1ccc2c(c1)[nH]c1cnc3c4cccnc4[nH]c3c12`, for which the TGI in assay [1] was more than 100 µM; in assay [2], 30.3 µM; in assay [3] it was 34.5 µM; in assay [4], 30.8 µM; in [5], 46.4 µM; in assay [6] it was 32 µM. For the same compound, the TGI worked out at 26.1 µM in assay [7] and 52.4 µM in [8].
On to `Cc1cc(=O)oc2cc(OCc3c(F)cccc3Cl)ccc12`, for which the TGI in assay [1], in [10], in assay [9], in assay [4], in assay [6] and in assay [7] was more than 100 µM each time. Further, the TGI in assay [8] is more than 100 µM.
Consider `O=C1c2c(n(Cc3ccccc3)c(=O)n2Cc2ccccc2)C(=O)N1Cc1ccccc1`, for which the TGI in assay [1], in assay [2], in assay [3], in assay [4], in assay [5] and in assay [6] was more than 100 µM each time. For the same compound, the TGI in assay [7] and in assay [8] was more than 100 µM in each case.
On to `Cc1ccc(-c2cc(C3=CC(=O)C=CC3=O)n(-c3ccc(S(N)(=O)=O)cc3)n2)cc1`, for which the GI50 in [10] is 64.1 µM; in assay [2] it was 53.9 µM; in [4], 17.3 µM; in assay [5] it was 34.4 µM; in assay [6], 88.7 µM; in assay [7], 8.54 µM. In assay [8], the GI50 was more than 100 µM. In addition, the TGI in assay [10] was more than 100 µM; in assay [2], more than 100 µM; in [4], 33 µM; in assay [5], more than 100 µM; in assay [6], more than 100 µM; in [7], 48.7 µM. The TGI in [8] was more than 100 µM.
Consider `COc1ccc(/C=C\c2cc(OC)c(OC)c(OC)c2)cc1OC(=O)CCC(=O)O`, for which the GI50 in [1] was less than 0.0001 µM; in assay [2] it was 1.68 µM; in assay [8], less than 0.0001 µM. In addition, the TGI in assay [10] was more than 100 µM; in assay [2] it was 38.5 µM; in assay [6], 69.6 µM; in assay [7] it was more than 100 µM.
Take `O=C(C(=O)N1CC2C=CC1CC2)c1c[nH]c2ccccc12` (centres undefined): the TGI in [1], in assay [2], in assay [3], in assay [4], in assay [5] and in [6] was more than 100 µM in each case. Moreover, the TGI in assay [7] and in assay [8] was more than 100 µM throughout.
